“And” between values parts separate entries of the source, which are not always exact repeats. Equal entries are not always repeated. Inconclusive results and toxic doses are left out. Rule as the data show it: active = T/C of 150% or more; inactive = T/C below 125%.
Test system: L1210 leukemia ip in BDF1 mice, survival T/C
Assay: NCI In Vivo Anticancer Drug Screen. Data for tumor model L1210 Leukemia (intraperitoneal) in B6D2F1 (BDF1) mice
Details: endpoint: mean survival time, higher = longer survival
Outline: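 Ratio derived from survival: compound-dosed mice over vehicle-dosed mice, all bearing a transplantable tumor.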

[1] = dose: 75.0 mg/kg/injection, schedule: Q01DX001 (ip), vehicle: saline
[2] = dose: 150.0 mg/kg/injection, schedule: Q01DX001 (ip), vehicle: saline
[3] = dose: 200.0 mg/kg/injection, schedule: Q01DX001 (ip), vehicle: carboxymethylcellulose (CMC)
[4] = dose: 100.0 mg/kg/injection, schedule: Q01DX001 (ip), vehicle: Klucel (hydroxypropylcellulose) (HPC)
[5] = dose: 200.0 mg/kg/injection, schedule: Q01DX001 (ip), vehicle: Klucel (hydroxypropylcellulose) (HPC)
[6] = dose: 400.0 mg/kg/injection, schedule: Q01DX001 (ip), vehicle: Klucel (hydroxypropylcellulose) (HPC)
[7] = dose: 50.0 mg/kg/injection, schedule: Q01DX009 (ip), vehicle: Klucel (hydroxypropylcellulose) (HPC)
[8] = dose: 100.0 mg/kg/injection, schedule: Q04DX003 (ip), vehicle: Klucel (hydroxypropylcellulose) (HPC)
[9] = dose: 200.0 mg/kg/injection, schedule: Q04DX003 (ip), vehicle: Klucel (hydroxypropylcellulose) (HPC)
[10] = dose: 400.0 mg/kg/injection, schedule: Q01DX009 (ip), vehicle: Klucel (hydroxypropylcellulose) (HPC)
[11] = dose: 400.0 mg/kg/injection, schedule: Q04DX003 (ip), vehicle: Klucel (hydroxypropylcellulose) (HPC)
[12] = dose: 50.0 mg/kg/injection, schedule: Q01DX009 (ip), vehicle: saline with Tween-80
[13] = dose: 100.0 mg/kg/injection, schedule: Q01DX009 (ip), vehicle: saline with Tween-80
[14] = dose: 100.0 mg/kg/injection, schedule: Q04DX003 (ip), vehicle: saline
[15] = dose: 200.0 mg/kg/injection, schedule: Q04DX003 (ip), vehicle: saline
[16] = dose: 400.0 mg/kg/injection, schedule: Q04DX003 (ip), vehicle: saline
[17] = dose: 25.0 mg/kg/injection, schedule: Q04DX002 (ip), vehicle: saline with Tween-80
[18] = dose: 100.0 mg/kg/injection, schedule: Q01DX009 (ip), vehicle: saline
[19] = dose: 200.0 mg/kg/injection, schedule: Q01DX009 (ip), vehicle: saline

Measured: T/C

CN(C)c1ccccc1C1CCCCCC1O (configuration not stated)
inactive: dose: 75.0 mg/kg/injection, schedule: Q01DX001 (ip), vehicle: carboxymethylcellulose (CMC) 101 % of control | dose: 150.0 mg/kg/injection, schedule: Q01DX001 (ip), vehicle: carboxymethylcellulose (CMC) 90 % of control | dose: 300.0 mg/kg/injection, schedule: Q01DX001 (ip), vehicle: carboxymethylcellulose (CMC) 90 % of control

CC(=O)N1CCc2nc3ccccc3cc21
inactive: dose: 37.5 mg/kg/injection, schedule: Q01DX009 (ip), vehicle: saline with Tween-80 96 % of control | dose: 37.5 mg/kg/injection, schedule: Q04DX003 (ip), vehicle: saline 104 % of control | [1] 95 % of control | dose: 75.0 mg/kg/injection, schedule: Q01DX009 (ip), vehicle: saline with Tween-80 94 % of control | dose: 75.0 mg/kg/injection, schedule: Q04DX003 (ip), vehicle: saline 104 % of control | [2] 101 % of control | dose: 150.0 mg/kg/injection, schedule: Q01DX009 (ip), vehicle: saline with Tween-80 88 % of control | dose: 150.0 mg/kg/injection, schedule: Q04DX003 (ip), vehicle: saline 106 % of control

N=C(N)c1cccc(NC(=O)c2ccc(C(=O)Nc3cccc(C(=N)N)c3)c(N)c2)c1
inactive: dose: 5.0 mg/kg/injection, schedule: Q01DX Z (ip), vehicle: carboxymethylcellulose (CMC) 106 % of control | dose: 10.0 mg/kg/injection, schedule: Q01DX Z (ip), vehicle: carboxymethylcellulose (CMC) 104 % of control | dose: 20.0 mg/kg/injection, schedule: Q01DX Z (ip), vehicle: carboxymethylcellulose (CMC) 120 % of control

CC(=O)OCCC/C(=C\c1ccc(Br)cc1)[N+](=O)[O-]
inactive: dose: 100.0 mg/kg/injection, schedule: Q01DX001 (ip), vehicle: carboxymethylcellulose (CMC) 97 % of control | [3] 97 % of control

O=C1c2ccccc2C(=O)N1c1ccccc1-c1ccccc1
inactive: dose: 25.0 mg/kg/injection, schedule: Q01DX001 (ip), vehicle: Klucel (hydroxypropylcellulose) (HPC) 95 % of control | dose: 50.0 mg/kg/injection, schedule: Q01DX001 (ip), vehicle: Klucel (hydroxypropylcellulose) (HPC) 103 % of control | [4] 101 % of control and 121 % of control | [5] 93 % of control and 97 % of control | [6] 89 % of control

Cc1ccc(C)c(NC(=O)c2ccc(Cl)c(Cl)c2)c1
inactive: dose: 1.5 mg/kg/injection, schedule: Q01DX009 (ip), vehicle: Klucel (hydroxypropylcellulose) (HPC) 92 % of control | dose: 3.0 mg/kg/injection, schedule: Q01DX009 (ip), vehicle: Klucel (hydroxypropylcellulose) (HPC) 99 % of control | dose: 6.0 mg/kg/injection, schedule: Q01DX009 (ip), vehicle: Klucel (hydroxypropylcellulose) (HPC) 97 % of control | dose: 6.25 mg/kg/injection, schedule: Q01DX009 (ip), vehicle: Klucel (hydroxypropylcellulose) (HPC) 88 % of control | [7] 86 % of control | [8] 93 % of control | [9] 91 % of control | [10] 86 % of control | [11] 90 % of control

c1ccc(-c2cnsc2)cc1
inactive: [3] 95 % of control | dose: 400.0 mg/kg/injection, schedule: Q01DX001 (ip), vehicle: carboxymethylcellulose (CMC) 100 % of control

Cc1ccc(C2OC2(C(=O)c2ccccc2)c2ccccc2)cc1 (configuration not stated)
inactive: dose: 100.0 mg/kg/injection, schedule: Q01DX009 (ip), vehicle: Klucel (hydroxypropylcellulose) (HPC) 106 % of control | [8] 96 % of control | dose: 200.0 mg/kg/injection, schedule: Q01DX009 (ip), vehicle: Klucel (hydroxypropylcellulose) (HPC) 108 % of control | [9] 104 % of control | [10] 92 % of control | [11] 98 % of control

CCC(=O)C(C)(C)c1ccccc1 (tested in a mixture with another compound)
inactive: [12] 95 % of control | [13] 88 % of control | dose: 200.0 mg/kg/injection, schedule: Q01DX009 (ip), vehicle: saline with Tween-80 96 % of control

O=C1NCCCN1C1OC(CO)C(O)C1O (configuration not stated)
inactive: dose: 100.0 mg/kg/injection, schedule: Q01DX005 (ip), vehicle: saline 107 % of control | dose: 200.0 mg/kg/injection, schedule: Q01DX005 (ip), vehicle: saline 104 % of control

CC(=O)Oc1c2ccccc2cc2ccccc12
inactive: dose: 100.0 mg/kg/injection, schedule: Q04DX002 (ip), vehicle: Klucel (hydroxypropylcellulose) (HPC) 114 % of control | dose: 400.0 mg/kg/injection, schedule: Q04DX002 (ip), vehicle: Klucel (hydroxypropylcellulose) (HPC) 118 % of control

O=C(CCC(=O)Oc1ccc(S(=O)(=O)F)cc1)Oc1ccc(S(=O)(=O)F)cc1
inactive: [14] 92 % of control | [15] 118 % of control | [16] 103 % of control

O=c1cc(Oc2ccc([N+](=O)[O-])cc2)[nH]c(=O)[nH]1
inactive: [4] 96 % of control | [5] 107 % of control

NC(CSS(=O)(=O)O)=NC1CCCCC1
inactive: dose: 6.25 mg/kg/injection, schedule: Q04DX002 (ip), vehicle: saline with Tween-80 120 % of control | dose: 12.5 mg/kg/injection, schedule: Q04DX002 (ip), vehicle: saline with Tween-80 113 % of control | [17] 98 % of control

C=CC(C)(O)CCC1C(=C)C(O)CC2C(C)(C)CCCC12C (configuration not stated)
inactive: [18] 100 % of control | [14] 105 % of control | [19] 100 % of control | [15] 95 % of control | dose: 400.0 mg/kg/injection, schedule: Q01DX009 (ip), vehicle: saline 94 % of control | [16] 90 % of control

c1ccc2c3c([nH]c2c1)C1CC2CCCCC2CN1CC3 (configuration not stated)
inactive: [1] 107 % of control | [2] 109 % of control

Nc1nc2c(c(-c3ccc(Cl)cc3)n1)CN(Cc1ccccc1)C2=O
inactive: dose: 50.0 mg/kg/injection, schedule: Q01DX009 (ip), vehicle: saline 98 % of control | [18] 104 % of control | [14] 101 % of control | [19] 106 % of control | [15] 100 % of control | [16] 89 % of control

CCCCNC(C)(C)C(SSSC(c1ccco1)C(C)(C)NCCCC)c1ccco1 (configuration not stated)
inactive: [12] 91 % of control | [13] 96 % of control | [14] 98 % of control | [15] 100 % of control

C1=Nc2ccccc2/C1=C/C=C/c1ccccc1
inactive: dose: 100.0 mg/kg/injection, schedule: Q04DX002 (ip), vehicle: gum acacia 88 % of control | dose: 200.0 mg/kg/injection, schedule: Q04DX002 (ip), vehicle: gum acacia 95 % of control | dose: 400.0 mg/kg/injection, schedule: Q04DX002 (ip), vehicle: gum acacia 95 % of control

CNc1nnnn1-c1ccccc1C
inactive: [4] 93 % of control | [5] 98 % of control | [6] 105 % of control

ClCC1CC2C=CC1C2 (configuration not stated)
inactive: dose: 12.5 mg/kg/injection, schedule: Q01DX009 (ip), vehicle: Klucel (hydroxypropylcellulose) (HPC) 100 % of control | dose: 25.0 mg/kg/injection, schedule: Q01DX009 (ip), vehicle: Klucel (hydroxypropylcellulose) (HPC) 100 % of control | [17] 102 % of control | [7] 93 % of control and 98 % of control | dose: 50.0 mg/kg/injection, schedule: Q04DX002 (ip), vehicle: saline with Tween-80 88 % of control

— PubChem BioAssay AID248 (DTP/NCI, 2004)
